Measurements as given in patent US11883423B2, “Nucleobase analogue derivatives and their applications” (BOARD OF REGENTS, THE UNIVERSITY OF TEXAS SYSTEM, priority 2014, dated 2024).

Tests used:
[1] = test system: NCI-60 human tumor cell lines; experiment: NCI-60 DTP Human Tumor Cell Line Screen, single dose; type: cell-based
Method: The cytotoxicity of Gem-DHA was also tested using the NCI-60 DTP Human Tumor Cell Line Screen service.

[2] = test system: Panc-02 cells; experiment: Cytotoxicity, LDH assay, Panc-02 cells; type: cell-based, mouse; settings: 48 h
Method: The cytotoxic activity of Gem-DHA was also evaluated using an LDH assay kit (Takara Clontech). Panc-02 cells were seeded in 96-well plates at 1,500 cells/well and incubated at 37° C. and 5% CO2 for 24 h, followed by treatment with Gem-DHA or gemcitabine HCl as mentioned above for 48 h. LDH activity in the cell culture medium was determined following the manufacturer's instruction.

[3] = Solubility in ethanol or Tween 80; type: physicochemical
[4] = test system: Panc-1-Luc tumors; experiment: Antitumor activity against orthotopic Panc-1-Luc tumors in nude mice, with tumor histology; type: in vivo
Text: Nude mice with intrapancreatically injected Panc-1-Luc human pancreatic cancer cells were used as a mouse model of pancreatic cancer. The National Institutes of Health guidelines for animal use and care were followed Animal protocols were approved by the Institutional Animal Care and Use Committee at the University of Texas at Austin. Panc-1-Luc cells (Muniz VP et al. Mol Cancer Res. 2011, 9(7), 867-877) were implanted orthotopically by injecting 1×10^6 cells into (the tail of) the pancreas.
Panc-1-Luc cell suspension was prepared at a concentration of 2×10^7 per ml in a 1:1 (v/v) mixture of DMEM and Matrigel. Tumor cells were then injected into the pancreas of male athymic nude mice (6-8 weeks, Charles River Laboratories, Wilmington, Mass.) following a surgical procedure (Raut CP et al. Cancer Biol Ther. 2004, 3(12), 1217-1224; Bruns CJ et al. Neoplasia. 1999, 1(1), 50-62). Briefly, after mice were anesthetized using isoflurane, the skin and peritoneum were cut open about 1 cm in length using sterile surgical scalpels. The pancreas was pulled out, and 50 μL of the cell suspension were injected slowly until a small bleb was formed. After the needle was withdrawn, a small cotton plug was applied for 10 s. The pancreas was returned back, the peritoneum was sutured with Monocryl™ bioresorbable sutures (Ethicon, Somerville, N.J.), and the skin was then closed using surgical clips. Mice were s.c. injected with buprenorphine (0.1 mg/kg) as a pain killer and were left to heal for one week. Tumor progress was monitored using an IVIS™ Spectrum imaging system (Caliper, Hopkinton, MA). For IVIS imaging, each mouse was i.p. injected with a luciferin solution (15 mg/ml) at a dose of 0.15 mg/g body weight in sterile DPBS, anesthetized with isoflurane, and imaged 10 min after luciferin injection. Four weeks after tumor implantation, mice with tumors were randomized into 3 groups (n=5-7) and intraperitoneally injected (i.p) with Gem-DHA (50 mg/kg, ˜0.087 mmole/kg), gemcitabine HCl (26.1 mg/kg, ˜0.087 mmole/kg), or left untreated. Gem-DHA was in a Tween 80/ethanol/water solution with 5% (w/v) of mannitol, and gemcitabine HCl was in sterile mannitol solution (5%, w/v). Treatments were repeated twice a week for a total 7 doses. Thirty days after the first treatment, mice were sacrificed and tumors were dissected from the pancreas, weighed, and fixed in formalin. The doses were based on the average weight of mice in the same group on the day of injection, and were adjusted only if the weight of an individual mouse was above or below 10% of the average weight.
Tumor tissues were sectioned and stained in the Histology and Tissue Analysis Core at Dell Pediatric Research Institute at the University of Texas at Austin or in the Department of
Molecular Carcinogenesis at the University of Texas M.D. Anderson Cancer Center at Science Park (Smithville, Texas) with hematoxylin & eosin (H&E), antibodies against cleaved lamin-A (apoptosis marker), CD-31 (angiogenesis marker), or Ki-67 (proliferation marker). Slides were then scanned, and images were taken using the ScanScope XT (Aperio Technologies, Vista, CA). […] In addition, several areas of necrosis can also be seen in the centers of the tumors. […] Several pyknotic cells with condensed chromatin can also be seen in tumors in mice that were treated with Gem-DHA.

[5] = Biodistribution in TC-1 tumor-bearing mice; type: in vivo, C57BL/6 mice; settings: 90 min after i.v. 75 mg/kg
Method: A biodistribution study was carried out in TC-1 tumor-bearing C57BL/6 mice. When tumor diameters reached 7-8 mm (i.e., about 4 weeks after tumor cell injection), mice were injected via the tail vein with a Gem-DHA solution (75 mg/kg). Ninety minutes later, mice were euthanized to collect tumors and major organs (e.g., liver, kidneys, spleen, lung, heart, and pancreas). Tissues were homogenized, and Gem-DHA was extracted using ethyl acetate as mentioned above and analyzed using HPLC.

For `CC/C=C\C/C=C\C/C=C\C/C=C\C/C=C\C/C=C\CCC(=O)Nc1ccn(C2OC(CO)C(O)C2(F)F)c(=O)n1` (stereo not drawn) [Gem-DHA, 4-(N)-Docosahexaenoyl Difluorodeoxycytidine], the “Growth inhibition in NCI-60 screen” value [1] was “inhibited the growth of various types of human tumor cells”, the “Cytotoxicity, LDH assay (comparison)” value [2] was “more cytotoxic than gemcitabine HCl” and the “Solubility in ethanol or Tween 80” value [3] was “freely soluble”. For the same molecule, the “H&E histology of tumor tissue” value ([4]; compared with tumors of untreated mice) was “less densely packed cancer cells”, the “Inhibition of growth of Panc-1-Luc tumors” value ([4]; i.p., ~0.087 mmole/kg (Gem-DHA 50 mg/kg, gemcitabine HCl 26.1 mg/kg), twice a week, 7 doses) was “more effective than the molar equivalent dose of gemcitabine HCl” and the “Percent of Ki-67 positive cells in tumors” value ([4]; versus mice treated with gemcitabine HCl) was “significantly lower percent of Ki-67 positive cells”. For the same molecule, the “Cleaved lamin-A positive staining in tumors” value ([4]; versus untreated mice) was “significantly higher percent of positive staining”, the “Micro-vessel density (MVD) in tumors, anti-CD-31 staining” value ([4]; versus untreated mice) was “significantly lower than in mice that were not treated” and the Distribution among organs [5] was “high percent of the injected Gem-DHA was in mouse pancreas”.
